This assay concerns the target Kynureninase (Pseudomonas fluorescens) (UniProt P83788). Briefly: Compound was evaluated for its binding affinity against kynureninase isolated from Pseudomonas fluorescence.

This is an account of results in BindingDB's records for doi:10.1016/S0960-894X(96)00483-0 (1996).

Kynureninase (Pseudomonas fluorescens), sequence (P83788 whole entry, looked up): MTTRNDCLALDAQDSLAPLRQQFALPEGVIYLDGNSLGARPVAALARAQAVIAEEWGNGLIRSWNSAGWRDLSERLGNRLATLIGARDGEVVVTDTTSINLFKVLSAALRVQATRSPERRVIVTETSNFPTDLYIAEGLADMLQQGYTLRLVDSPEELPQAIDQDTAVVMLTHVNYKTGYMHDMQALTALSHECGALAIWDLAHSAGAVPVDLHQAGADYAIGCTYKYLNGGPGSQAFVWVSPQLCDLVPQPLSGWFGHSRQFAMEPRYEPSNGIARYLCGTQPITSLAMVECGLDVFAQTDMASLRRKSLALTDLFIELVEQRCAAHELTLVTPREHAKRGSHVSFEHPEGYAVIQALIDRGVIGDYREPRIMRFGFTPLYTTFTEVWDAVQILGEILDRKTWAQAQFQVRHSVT

What is called Ki is the equilibrium dissociation constant of an inhibitor or competing ligand from its target. Read a low Ki as tighter binding. `Nc1ccccc1C(=O)C[C@H](N)C(=O)O` [2-ammonio-4-(2-ammoniophenyl)-4-oxo-(2S)-butanoate]: the inhibition constant Ki came out at 4.28 µM.

For the compound `COC(=O)[C@H](CP(=O)(OC)c1ccccc1)NC(=O)OCc1ccccc1` (stereo partly drawn) [(R)-2-Benzyloxycarbonylamino-3-(methoxy-phenyl-phosphinoyl)-propionic acid methyl ester], the Ki turned out to be 8.8 µM.

The compound `COP(=O)(C[C@H](NC(=O)OCc1ccccc1)C(=O)O)c1ccccc1` (stereo partly drawn) [(R)-2-Benzyloxycarbonylamino-3-(methoxy-phenyl-phosphinoyl)-propionic acid] had a Ki of 880 µM.

As for `N[C@@H](CC(=O)c1ccccc1)C(=O)O` [2-ammonio-4-oxo-4-phenyl-(2S)-butanoate], affinity was put at a Ki of 23.4 µM.
